# Assay results published in US6787670B1, “Glyoxyl acid amides, method for producing them and their use for controlling harmful organisms” (priority 1999, dated 2004).
# System: Phytophthora infestans
# Experiment: whole plant or invertebrate
# Assay type: in vivo
# Details: Phytophthora infestans, in Solanum lycopersicum, 72 h, read-out: efficacy in %, tomato plants, protective spray, application rate 50 g/ha, evaluation 3 days after inoculation; 100% = no infection
row,Compound,pest or weed control at 50 g/ha
1,C=CCOc1ccc(CCNC(=O)/C(=N\OC)c2ccc3c(c2)CCCC3)cc1OC [Example 57],99%
2,CCC(=O)COc1ccc(CCNC(=O)/C(=N\OC)c2ccc3c(c2)CCCC3)cc1OC [Example 60],89%
3,CCc1ccc(/C(=N/OC)C(=O)NCCc2ccc(OC(C)C)c(OC)c2)cc1 [Example 60],≥ 89%
4,CCCOc1ccc(CCNC(=O)/C(=N\OC)c2ccc(Br)cc2)cc1OC [Example 61],94%
5,CO/N=C(\C(=O)NCCc1ccc(OC(C)C)c(OC)c1)c1ccc2c(c1)CCCC2 [Example 61],≥ 89%
6,CCC(C)Oc1ccc(CCNC(=O)/C(=N\OC)c2ccc(Cl)cc2)cc1OC (stereo not shown) [Example 62],89%
7,CCC(C)Oc1ccc(CCNC(=O)/C(=N\OC)c2ccc3c(c2)CCC3)cc1OC (stereo not shown) [Example 65],94%
8,CO/N=C(\C(=O)NCCc1ccc(OC(C)C)c(OC)c1)c1ccc(C)cc1 [Example 107],95%
9,COCCOc1ccc(CCNC(=O)/C(=N/OC)c2ccc3c(c2)CCCC3)cc1OC [Example 107],≥ 89%
10,C=CCOc1ccc(CCNC(=O)/C(=N\OC)c2ccc(Br)cc2)cc1OC [Example 115],≥ 89%
11,CO/N=C(\C(=O)NCCc1ccc(OC(C)C)c(OC)c1)c1ccc2c(c1)CCC2 [Example 115],94%

# Same assay, conditions: tomato plants, protective spray, application rate 50 g/ha, evaluation 3 days after inoculation; 100% = no infection
row,Compound,efficacy in %
1,COCCOc1ccc(CCNC(=O)/C(=N/OC)c2ccc3c(c2)CCCC3)cc1OC [Example 3],92%
2,C=CCOc1ccc(CCNC(=O)/C(=N\OC)c2ccc(Br)cc2)cc1OC [Example 52],100%
3,CCc1ccc(/C(=N/OC)C(=O)NCCc2ccc(OC(C)C)c(OC)c2)cc1 [Example 113],94%

# Same assay, conditions: tomato plants, protective spray, application rate 50 g/ha, evaluation 3 days after inoculation; 100% = no infection; listed as drawing 53
row,Compound,efficacy in %
1,CO/N=C(\C(=O)NCCc1ccc(OC(C)C)c(OC)c1)c1ccc2c(c1)CCCC2 [Example 63],94%

# Same assay, conditions: tomato plants, protective spray, application rate 50 g/ha, evaluation 3 days after inoculation; 100% = no infection; listed as drawing 58
row,Compound,efficacy in %
1,CO/N=C(\C(=O)NCCc1ccc(OC(C)C)c(OC)c1)c1ccc2c(c1)CCCC2 [Example 116],94%

# System: Plasmopara viticola
# Experiment: Plasmopara test (grapevine)/protective
# Assay type: in vivo
# Details: 144 h, grapevine plants, protective spray, application rate 50 g/ha, evaluation 6 days after inoculation, 100% = no infection, read-out: efficacy in %
row,Compound,pest or weed control at 50 g/ha
1,COCCOc1ccc(CCNC(=O)/C(=N\OC)c2ccc(Cl)cc2)cc1OC [Example 60],96%
2,CCC(=O)COc1ccc(CCNC(=O)/C(=N\OC)c2ccc3c(c2)CCCC3)cc1OC [Example 100],94%
3,CCC(C)Oc1ccc(CCNC(=O)/C(=N\OC)c2ccc(Cl)cc2)cc1OC (stereo not shown) [Example 111],83%
4,CCC(C)Oc1ccc(CCNC(=O)/C(=N\OC)c2ccc3c(c2)CCC3)cc1OC (stereo not shown) [Example 113],94%
5,CO/N=C(\C(=O)NCCc1ccc(OC(C)C)c(OC)c1)c1ccc2c(c1)CCC2 [Example 116],100%

# Same assay, conditions: 144 h, read-out: efficacy in %
row,Compound,pest or weed control at 50 g/ha
1,CCOc1cc(CCNC(=O)/C(=N\OC)c2ccc3c(c2)CCCC3)ccc1OC [Example 52],93%
2,C=CCOc1ccc(CCNC(=O)/C(=N\OC)c2ccc(Br)cc2)cc1OC [Example 63],99%
3,COCCOc1ccc(CCNC(=O)/C(=N\OC)c2ccc3c(c2)CCCC3)cc1OC [Example 65],93%
4,CCc1ccc(/C(=N/OC)C(=O)NCCc2ccc(OC(C)C)c(OC)c2)cc1 [Example 115],87%

# Same assay, conditions: 144 h, read-out: efficacy in %, grapevine plants, protective spray, application rate 50 g/ha, evaluation 6 days after inoculation, 100% = no infection
row,Compound,pest or weed control at 50 g/ha
1,CCc1ccc(/C(=N/OC)C(=O)NCCc2ccc(OC(C)C)c(OC)c2)cc1 [Example 60],≥ 83%
2,CCOc1cc(CCNC(=O)/C(=N\OC)c2ccc3c(c2)CCCC3)ccc1OC [Example 100],≥ 83%
3,C=CCOc1ccc(CCNC(=O)/C(=N\OC)c2ccc(Br)cc2)cc1OC [Example 115],≥ 83%

# System: Alternaria solani
# Experiment: Alternaria test (tomato)/protective
# Assay type: in vivo
# Details: tomato plants, protective spray, application rate 750 g/ha, evaluation 3 days after inoculation; 100% = no infection
# Experimental: Alternaria Test (Tomato)/Protective
# Solvent: 50 parts by weight of N,N-dimethylformamide
# Emulsifier: 1.2 parts by weight of alkylaryl polyglycol ether
# One day after the treatment, the plants are inoculated with a spore suspension of Alternaria solani. The plants then stand at 100% rel. atmospheric humidity and a temperature of 20° C.
# Evaluation is carried out 3 days after the inoculation.
row,Compound,efficacy in %
1,CO/N=C(\C(=O)NCCc1ccc(OCC(C)C)c(OC)c1)c1ccc2c(c1)CCCC2 [Example 45],95%
2,CCCCOc1ccc(CCNC(=O)/C(=N\OC)c2ccc3c(c2)CCCC3)cc1OC [Example 48],95%
3,CO/N=C(\C(=O)NCCc1ccc(OCC(C)C)c(OC)c1)c1ccc2c(c1)CCCC2 [Example 49],90%
